# Where a SMILES comes first, the peptide text is derived from it. Bridges are numbered along the chain shown (N, C = ends).
# Assay: Determination of the protein binding (90% serum, 30 kDa filter, HPLC)
# Assay type: in vitro ADME
# Details: serum
# Protocol: Protein binding assays were performed as follows. The purified peptides were mixed with 90% serum and centrifuged through a 30 kDa filter. The ultra-filtrate and the non filtrated serum samples were quantified by HPLC measurements and the protein binding was subsequently calculated.
row,Structure (SMILES),fraction unbound
1,"CC(C)[C@@H]1NC(=O)[C@@H]2CSSC[C@H](NC(=O)[C@H](C(C)C)NC(=O)[C@H](CCCNC(=N)N)NC(=O)[C@H](CCCCN)NC(=O)CNC(=O)[C@H](CC(N)=O)NC(=O)[C@H](CCCNC(=N)N)NC(=O)[C@H](Cc3ccc(O)cc3)NC1=O)C(=O)N[C@@H](Cc1ccc(O)cc1)C(=O)N[C@@H](CCCNC(=N)N)C(=O)N[C@@H](CCCNC(=N)N)C(=O)N[C@H](C(=O)N[C@@H](CC(N)=O)C(=O)O)CSSC[C@H](NC(=O)[C@H](Cc1ccccc1)NC(=O)CN)C(=O)N[C@@H](Cc1c[nH]c3ccccc13)C(=O)N[C@@H](Cc1ccc(O)cc1)C(=O)N[C@@H](C)C(=O)N2 [compound 80] (H-GFCWYACVYRNGKRVCYRRCN-OH; disulfide 3-20, 7-16 (inferred); N-terminus and C-terminus assumed)",0.04
2,"CC(C)[C@@H]1NC(=O)CNC(=O)[C@H](CC(N)=O)NC(=O)[C@H](CCCNC(=N)N)NC(=O)[C@H](CCCCN)NC(=O)[C@H](C(C)C)NC(=O)[C@@H]2CSSC[C@H](NC(=O)[C@H](CO)NC(=O)[C@H](CCCNC(=N)N)NC1=O)C(=O)N[C@@H](Cc1ccc(O)cc1)C(=O)N[C@@H](CCCNC(=N)N)C(=O)N[C@@H](CCCNC(=N)N)C(=O)N[C@H](C(=O)N[C@@H](CC(N)=O)C(=O)O)CSSC[C@H](NC(=O)[C@H](Cc1ccccc1)NC(=O)CN)C(=O)N[C@@H](Cc1c[nH]c3ccccc13)C(=O)N[C@@H](Cc1ccc(O)cc1)C(=O)N[C@@H](C(C)C)C(=O)N2 [compound 87] (H-GFCWYVCVKRNGVRSCYRRCN-OH; disulfide 3-20, 7-16 (inferred); N-terminus and C-terminus assumed)",0.07
3,"CC(C)[C@@H]1NC(=O)CNC(=O)[C@H](CC(N)=O)NC(=O)[C@H](CCCCN)NC(=O)[C@H](Cc2ccc(O)cc2)NC(=O)[C@H](C(C)C)NC(=O)[C@@H]2CSSC[C@H](NC(=O)[C@H](C(C)C)NC(=O)[C@H](CCCNC(=N)N)NC1=O)C(=O)N[C@@H](Cc1c[nH]cn1)C(=O)N[C@@H](CCCNC(=N)N)C(=O)N[C@@H](CCCNC(=N)N)C(=O)N[C@H](C(=O)N[C@@H](CC(N)=O)C(=O)O)CSSC[C@H](NC(=O)[C@H](Cc1ccccc1)NC(=O)CN)C(=O)N[C@@H](Cc1c[nH]c3ccccc13)C(=O)N[C@@H](Cc1ccc(O)cc1)C(=O)N[C@@H](C(C)C)C(=O)N2 [compound 89] (H-GFCWYVCVYKNGVRVCHRRCN-OH; disulfide 3-20, 7-16 (inferred); N-terminus and C-terminus assumed)",0.1
4,"CC(C)[C@@H]1NC(=O)CNC(=O)[C@H](CC(N)=O)NC(=O)[C@H](CCCNC(=N)N)NC(=O)[C@H](Cc2ccc(O)cc2)NC(=O)[C@H](C(C)C)NC(=O)[C@@H]2CSSC[C@H](NC(=O)[C@H](C(C)C)NC(=O)[C@H](CCCNC(=N)N)NC1=O)C(=O)N[C@@H](Cc1c[nH]cn1)C(=O)N[C@@H](CCCNC(=N)N)C(=O)N[C@@H](CCCNC(=N)N)C(=O)N[C@H](C(=O)N[C@@H](CC(N)=O)C(=O)O)CSSC[C@H](NC(=O)[C@H](Cc1ccccc1)NC(=O)[C@@H](N)Cc1c[nH]cn1)C(=O)N[C@@H](Cc1c[nH]c3ccccc13)C(=O)N[C@@H](CC(N)=O)C(=O)N[C@@H](C(C)C)C(=O)N2 [compound 98] (H-HFCWNVCVYRNGVRVCHRRCN-OH; disulfide 3-20, 7-16 (inferred); N-terminus and C-terminus assumed)",0.23
5,"CC(C)[C@@H]1NC(=O)CNC(=O)[C@H](CC(N)=O)NC(=O)[C@H](CCCNC(=N)N)NC(=O)[C@H](Cc2ccc(O)cc2)NC(=O)[C@H](C(C)C)NC(=O)[C@@H]2CSSC[C@H](NC(=O)[C@H](C(C)C)NC(=O)[C@H](CCCNC(=N)N)NC1=O)C(=O)N[C@@H](Cc1c[nH]cn1)C(=O)N[C@@H](CCCNC(=N)N)C(=O)N[C@@H](CCCNC(=N)N)C(=O)N[C@H](C(=O)N[C@@H](CC(N)=O)C(=O)O)CSSC[C@H](NC(=O)[C@H](Cc1ccccc1)NC(=O)[C@@H](N)CCCCN)C(=O)N[C@@H](Cc1c[nH]c3ccccc13)C(=O)N[C@@H](CC(N)=O)C(=O)N[C@@H](C(C)C)C(=O)N2 [compound 100] (H-KFCWNVCVYRNGVRVCHRRCN-OH; disulfide 3-20, 7-16 (inferred); N-terminus and C-terminus assumed)",0.22
6,"CSCC[C@H](N)C(=O)N[C@@H](Cc1ccccc1)C(=O)N[C@H]1CSSC[C@@H](C(=O)N[C@@H](CC(N)=O)C(=O)O)NC(=O)[C@H](CCCNC(=N)N)NC(=O)[C@H](CCCNC(=N)N)NC(=O)[C@H](Cc2c[nH]cn2)NC(=O)[C@@H]2CSSC[C@H](NC(=O)[C@H](C(C)C)NC(=O)[C@H](CC(N)=O)NC(=O)[C@H](Cc3c[nH]c4ccccc34)NC1=O)C(=O)N[C@@H](C(C)C)C(=O)N[C@@H](Cc1ccc(O)cc1)C(=O)N[C@@H](CCCNC(=N)N)C(=O)N[C@@H](CC(N)=O)C(=O)NCC(=O)N[C@@H](C(C)C)C(=O)N[C@@H](CCCNC(=N)N)C(=O)N[C@@H](C(C)C)C(=O)N2 [compound 101] (H-MFCWNVCVYRNGVRVCHRRCN-OH; disulfide 3-20, 7-16 (inferred); N-terminus and C-terminus assumed)",0.19
7,"CC(C)[C@@H]1NC(=O)CNC(=O)[C@H](CC(N)=O)NC(=O)[C@H](CCCNC(=N)N)NC(=O)[C@H](Cc2ccc(O)cc2)NC(=O)[C@H](C(C)C)NC(=O)[C@@H]2CSSC[C@H](NC(=O)[C@H](CO)NC(=O)[C@H](CCCNC(=N)N)NC1=O)C(=O)N[C@@H](Cc1ccc(O)cc1)C(=O)N[C@@H](CCCNC(=N)N)C(=O)N[C@@H](CCCNC(=N)N)C(=O)N[C@H](C(=O)N[C@@H](CC(N)=O)C(=O)O)CSSC[C@H](NC(=O)[C@H](Cc1ccccc1)NC(=O)CN)C(=O)N[C@@H](C)C(=O)N[C@@H](CCCCN)C(=O)N[C@@H](C(C)C)C(=O)N2 [compound 120] (H-GFCAKVCVYRNGVRSCYRRCN-OH; disulfide 3-20, 7-16 (inferred); N-terminus and C-terminus assumed)",0.31
8,"CC(C)[C@@H]1NC(=O)CNC(=O)[C@H](CC(N)=O)NC(=O)[C@H](CCCNC(=N)N)NC(=O)[C@H](Cc2ccc(O)cc2)NC(=O)[C@H](C(C)C)NC(=O)[C@@H]2CSSC[C@H](NC(=O)[C@H](CO)NC(=O)[C@H](CCCNC(=N)N)NC1=O)C(=O)N[C@@H](Cc1ccc(O)cc1)C(=O)N[C@@H](CCCNC(=N)N)C(=O)N[C@@H](CCCNC(=N)N)C(=O)N[C@H](C(=O)N[C@@H](CC(N)=O)C(=O)O)CSSC[C@H](NC(=O)[C@H](Cc1ccccc1)NC(=O)CN)C(=O)N[C@@H](C)C(=O)N[C@@H](CCCNC(=N)N)C(=O)N[C@@H](C(C)C)C(=O)N2 [compound 122] (H-GFCARVCVYRNGVRSCYRRCN-OH; disulfide 3-20, 7-16)",0.19
9,"CC(C)[C@@H]1NC(=O)CNC(=O)[C@H](CC(N)=O)NC(=O)[C@H](CCCNC(=N)N)NC(=O)[C@H](CCCCN)NC(=O)[C@H](C(C)C)NC(=O)[C@@H]2CSSC[C@H](NC(=O)[C@H](C(C)C)NC(=O)[C@H](CCCNC(=N)N)NC1=O)C(=O)N[C@@H](Cc1ccc(O)cc1)C(=O)N[C@@H](CCCNC(=N)N)C(=O)N[C@@H](CCCNC(=N)N)C(=O)N[C@H](C(=O)N[C@@H](CC(N)=O)C(=O)O)CSSC[C@H](NC(=O)[C@H](Cc1ccccc1)NC(=O)CN)C(=O)N[C@@H](C)C(=O)N[C@@H](CCCNC(=N)N)C(=O)N[C@@H](C(C)C)C(=O)N2 [compound 125] (H-GFCARVCVKRNGVRVCYRRCN-OH; disulfide 3-20, 7-16 (inferred); N-terminus and C-terminus assumed)",0.1
10,"CC(C)[C@@H]1NC(=O)CNC(=O)[C@H](CC(N)=O)NC(=O)[C@H](CCCNC(=N)N)NC(=O)[C@H](CCCCN)NC(=O)[C@H](C(C)C)NC(=O)[C@@H]2CSSC[C@H](NC(=O)[C@H](C(C)C)NC(=O)[C@H](CCCNC(=N)N)NC1=O)C(=O)N[C@@H](Cc1c[nH]cn1)C(=O)N[C@@H](CCCNC(=N)N)C(=O)N[C@@H](CCCNC(=N)N)C(=O)N[C@H](C(=O)N[C@@H](CC(N)=O)C(=O)O)CSSC[C@H](NC(=O)[C@H](Cc1ccccc1)NC(=O)CN)C(=O)N[C@@H](Cc1ccccc1)C(=O)N[C@@H](Cc1ccc(O)cc1)C(=O)N[C@@H](C(C)C)C(=O)N2 [compound 137] (H-GFCFYVCVKRNGVRVCHRRCN-OH; disulfide 3-20, 7-16 (inferred); N-terminus and C-terminus assumed)",0.14
11,"CC(C)[C@@H]1NC(=O)CNC(=O)[C@H](CC(N)=O)NC(=O)[C@H](CCCNC(=N)N)NC(=O)[C@H](Cc2ccc(O)cc2)NC(=O)[C@H](C(C)C)NC(=O)[C@@H]2CSSC[C@H](NC(=O)[C@H](C(C)C)NC(=O)[C@H](CCCNC(=N)N)NC1=O)C(=O)N[C@@H](Cc1ccc(O)cc1)C(=O)N[C@@H](CCCNC(=N)N)C(=O)N[C@@H](CCCNC(=N)N)C(=O)N[C@H](C(=O)N[C@@H](CO)C(=O)O)CSSC[C@H](NC(=O)[C@H](Cc1ccccc1)NC(=O)CN)C(=O)NCC(=O)N[C@@H](Cc1c[nH]cn1)C(=O)N[C@@H](C(C)C)C(=O)N2 [compound 144] (H-GFCGHVCVYRNGVRVCYRRCS-OH; disulfide 3-20, 7-16 (inferred); N-terminus and C-terminus assumed)",0.32
12,"CC(C)[C@@H]1NC(=O)CNC(=O)[C@H](CC(N)=O)NC(=O)[C@H](CCCNC(=N)N)NC(=O)[C@H](Cc2ccc(O)cc2)NC(=O)[C@H](C(C)C)NC(=O)[C@@H]2CSSC[C@H](NC(=O)[C@H](CCCNC(=N)N)NC(=O)[C@H](CCCNC(=N)N)NC1=O)C(=O)N[C@@H](Cc1ccc(O)cc1)C(=O)N[C@@H](CCCNC(=N)N)C(=O)N[C@@H](CCCNC(=N)N)C(=O)N[C@H](C(=O)N[C@@H](CC(N)=O)C(=O)O)CSSC[C@H](NC(=O)[C@H](Cc1ccccc1)NC(=O)CN)C(=O)NCC(=O)N[C@@H](Cc1c[nH]cn1)C(=O)N[C@@H](C(C)C)C(=O)N2 [compound 155] (H-GFCGHVCVYRNGVRRCYRRCN-OH; disulfide 3-20, 7-16 (inferred); N-terminus and C-terminus assumed)",0.17
